Assay results reported in patent EP2417971A1, “Clomiphene for use in increasing the chances of pregnancy of women having a low ovarian reserve” (Nitzschke, Markus, priority 2010, dated 2012).
Several values for one entry are separate records, joined by “and”; a condition that tells them apart may be missing. Equal values may be shown once. Where a name gives a salt, the structure may show the parent alone. Each block holds one compound with its values, some of them ahead of it.

Columns and labels:
endometrium = system: endometrium; set-up: species or system human; conditions: in vivo
Text: Teramoto has therefore used Clomiphene, inter alia, to control the ovulation process in the course of an in vitro fertilization (IVF). To make use of both the stimulating and the inhibiting effect of Clomiphene, Teramoto et al had to administer Clomiphene right at the beginning of the menstrual cycle until the day of induction of ovulation, which is usually between the 10th and 12th day of said cycle. The stimulating effect occurs prior to the 6th cycle day, before a dominant follicle is selected, whereas the inhibiting effect starts on day six or seven after selection of the dominant follicle. However, as we observed, if Clomiphene is administered in the described manner, the growth of the endometrium is inhibited at the same time due to the anti-estrogenic effect of Clomiphene (blocking of the estrogen receptors) and thus the embryos should not be transferred in the same cycle, because implantation success rate is low. In order to increase the implantation success rate, the resulting embryos should be frozen and transferred in the next cycle where no Clomiphene medication is conducted.

[1] = system: women with low ovarian reserve; experiment: Case study: Clomiphene citrate from day 6 of the cycle to avoid pathological premature LH rise, followed by IVF; type: in vivo, human
Experimental: Women with low ovarian reserve take 50 mg oral Clomiphene Citrate every second day or 25 mg each day after the 6th day of the menstrual cycle until the follicle has reached a desired size of 18-20 mm. Subsequently ovulation is artificially triggered by the administration of GnRH (Gonadotropin releasing hormone) analogs, which is preferred, or human chorionic gonadotropin (HCG), 36-40 h after the administration of the ovulation inducing agent, the women had sexual intercourse. Alternatively, the ovum was obtained after 36 h and was fertilized in vitro in the lab.
A nulliparous person with 6 years of infertility had regular short cycles of 23 days. When they were younger, they had longer cycles of up to 29 days, but starting, their cycles became gradually shorter. […] When a vaginal ultrasound scan was performed that day, a follicle of 14 mm on the left ovary was found. […] Their spouse's semen analysis was normal. They had failed six cycles of gonadotrophins-IUI (intra-uterine inseminations) and 4 IVF attempts. The last two cycles had to be cancelled due to low response in a GnRH antagonist protocol with FSH injections of up to 450 IU per day. On day 7 of their cycle a hormonal assay and vaginal ultrasound scan were performed. […] The women came back two days later. The follicle was gone and an oral contraceptive pill (OCP) for 10 days was started in order to prevent follicle growth during luteal phase. Five days after the last OCP, menstrual bleeding started. No dominant follicle could be seen, serum estradiol was 32 pg/mL and FSH 14 IU/L.
The person was again examined on day 9 of their cycle. […] Since oocytes ovulated from follicles smaller than 16 mm are often of a poor quality and do seldom produce a pregnancy, it was refrained from trying to retrieve the egg this time. The person ovulated the next day.
The person was examined again on day 6 of their next cycle. They had 2 small follicles of 12mm and 11mm on their left ovary. Serum estradiol was 113 pg/mL, FSH 7.7 IU/L and LH 5.6 IU/L. In order to avoid another pathological premature LH rise on a small follicle this cycle, the person was treated with small doses of Clomiphene citrate, i.e. 50mg Clomiphene citrate on day 6, 8 and 10 of the cycle. On day 11 two follicles on the left ovarian was found with sizes of 19mm and 15mm. Serum estradiol was 621 pg/mL and LH […]. Ovulation induction with 0.2mg triptorelix was performed on the evening of the next day and an oocyte was retrieved 36 hours later. Two mature eggs could be retrieved, but only one oocyte could be fertilized by IVF. Vaginal progesterone treatment was started the day of the egg retrieval. The embryo was transferred at day 2. Two weeks later the pregnancy test was positive.

growth of the endometrium (endometrium): inhibited
Compound: CCN(CC)CCOc1ccc(C(=C(Cl)c2ccccc2)c2ccccc2)cc1 [Clomiphene]

Compound: CCN(CC)CCOc1ccc(C(=C(Cl)c2ccccc2)c2ccccc2)cc1 [Clomiphene citrate]
oocytes fertilized by IVF ([1]; of the two mature eggs retrieved): only one
follicle size ([1]; person, 50mg Clomiphene citrate on day 6, 8 and 10 of the cycle, day 11, two follicles on the left ovary (12mm and 11mm on day 6)): 19 mm and 15 mm
Serum estradiol ([1]; person, 50mg on day 6, 8 and 10 of the cycle, measured on day 11 (113 pg/mL on day 6)): 621 pg/mL
LH ([1]; person, 50mg on day 6, 8 and 10 of the cycle, measured on day 11 (5.6 IU/L on day 6)): 7.4 IU/L
mature eggs retrieved ([1]; retrieval 36 hours after ovulation induction with 0.2mg triptorelix on the evening of day 12): Two
pregnancy test ([1]; two weeks after embryo transfer at day 2, same cycle): positive
